Assay results published in ChEMBL document CHEMBL4052601, “Glycybridins A-K, Bioactive Phenolic Compounds from Glycyrrhiza glabra” (J Nat Prod, 2017).
Calls of active or inactive are those of the source. No cut-off for these calls is given here.

Assays:
[1] = target: T1, Tyrosinase (Homo sapiens) (UniProt P14679); conditions: at 10 µM
T1 sequence (whole entry): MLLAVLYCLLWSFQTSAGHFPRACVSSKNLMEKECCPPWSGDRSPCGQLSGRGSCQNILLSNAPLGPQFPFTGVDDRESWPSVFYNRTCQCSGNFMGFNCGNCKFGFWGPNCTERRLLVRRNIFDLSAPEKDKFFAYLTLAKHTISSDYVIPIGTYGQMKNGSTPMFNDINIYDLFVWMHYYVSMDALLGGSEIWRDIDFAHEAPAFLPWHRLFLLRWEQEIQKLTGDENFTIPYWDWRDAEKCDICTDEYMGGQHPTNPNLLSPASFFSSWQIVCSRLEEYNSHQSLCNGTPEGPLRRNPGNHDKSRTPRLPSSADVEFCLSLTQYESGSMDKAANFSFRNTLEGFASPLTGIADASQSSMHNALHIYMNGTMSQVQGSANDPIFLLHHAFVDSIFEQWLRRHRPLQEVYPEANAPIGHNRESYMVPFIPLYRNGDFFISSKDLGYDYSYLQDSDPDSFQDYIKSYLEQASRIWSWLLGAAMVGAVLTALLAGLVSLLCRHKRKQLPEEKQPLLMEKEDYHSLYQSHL
Description: Inhibition of tyrosinase (unknown origin) using L-tyrosine as substrate at 10 uM preincubated for 15 mins followed by substrate addition relative to control

Homo sapiens = assay: Inhibition of LPS-induced NF-kappaB (unknown origin) transactivation expressed in human SW480 cells at 10 uM administered 1 hr after LPS stimulation measured after 6 hrs by luciferase reporter gene assay relative to control; format: cell-based
MCF7 = assay: Antiproliferative activity against human MCF7 cells at 10 uM after 24 hrs by MTS assay relative to control; format: functional; conditions: MCF7, 24 h
RAW264.7 [2] = assay: Antiinflammatory activity against mouse RAW264.7 cells assessed as inhibition of LPS-induced nitric oxide production at 10 uM after 24 hrs by Griess assay relative to control; format: functional; conditions: RAW264.7, 24 h
SW480 = assay: Antiproliferative activity against human SW480 cells at 10 uM after 24 hrs by MTS assay relative to control; format: functional; conditions: SW480, 24 h
HepG2 = assay: Antiproliferative activity against human HepG2 cells at 10 uM after 24 hrs by MTS assay relative to control; format: functional; conditions: HepG2, 24 h
[3] = target: T2, Tyrosine-protein phosphatase non-receptor type 1 (Homo sapiens) (UniProt P18031); conditions: at 10 µM
T2 sequence (whole entry): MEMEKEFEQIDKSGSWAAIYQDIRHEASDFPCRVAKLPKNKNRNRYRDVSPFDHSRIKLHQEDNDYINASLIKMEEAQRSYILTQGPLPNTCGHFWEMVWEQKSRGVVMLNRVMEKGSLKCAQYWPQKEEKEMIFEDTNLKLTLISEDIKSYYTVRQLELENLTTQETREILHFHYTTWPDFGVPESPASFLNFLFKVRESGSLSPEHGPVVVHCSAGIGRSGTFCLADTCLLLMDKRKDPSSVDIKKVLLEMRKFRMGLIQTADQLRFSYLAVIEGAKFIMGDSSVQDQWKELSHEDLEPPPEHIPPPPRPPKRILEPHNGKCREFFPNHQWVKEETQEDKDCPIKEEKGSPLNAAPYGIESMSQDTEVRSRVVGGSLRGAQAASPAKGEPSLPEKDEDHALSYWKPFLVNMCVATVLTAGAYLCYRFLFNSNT
Description: Inhibition of recombinant human PTP1B using pNPP as substrate at 10 uM after 30 mins relative to control

Tyrosinase [4] = target: T3, Tyrosinase (Homo sapiens, UniProt P14679); assay: Inhibition of tyrosinase (unknown origin) using L-tyrosine as substrate preincubated for 15 mins followed by substrate addition
T3 sequence (P14679 whole entry): T1 sequence (whole entry)

A549 [5] = assay: Antiproliferative activity against human A549 cells at 10 uM after 24 hrs by MTS assay relative to control; format: functional; conditions: A549, 24 h
[6] = Inhibition of LPS-induced NF-kappaB (unknown origin) transactivation expressed in human SW480 cells administered 1 hr after LPS stimulation measured after 6 hrs by luciferase reporter gene assay; format: cell-based
[7] = target: T4, Nuclear factor erythroid 2-related factor 2 (Homo sapiens) (UniProt Q16236); assay: Activation of Nrf2 (unknown origin) expressed in human HepG2 cells after 6 hrs by ARE-driven luciferase reporter gene assay relative to control; format: cell-based
T4 sequence (whole entry): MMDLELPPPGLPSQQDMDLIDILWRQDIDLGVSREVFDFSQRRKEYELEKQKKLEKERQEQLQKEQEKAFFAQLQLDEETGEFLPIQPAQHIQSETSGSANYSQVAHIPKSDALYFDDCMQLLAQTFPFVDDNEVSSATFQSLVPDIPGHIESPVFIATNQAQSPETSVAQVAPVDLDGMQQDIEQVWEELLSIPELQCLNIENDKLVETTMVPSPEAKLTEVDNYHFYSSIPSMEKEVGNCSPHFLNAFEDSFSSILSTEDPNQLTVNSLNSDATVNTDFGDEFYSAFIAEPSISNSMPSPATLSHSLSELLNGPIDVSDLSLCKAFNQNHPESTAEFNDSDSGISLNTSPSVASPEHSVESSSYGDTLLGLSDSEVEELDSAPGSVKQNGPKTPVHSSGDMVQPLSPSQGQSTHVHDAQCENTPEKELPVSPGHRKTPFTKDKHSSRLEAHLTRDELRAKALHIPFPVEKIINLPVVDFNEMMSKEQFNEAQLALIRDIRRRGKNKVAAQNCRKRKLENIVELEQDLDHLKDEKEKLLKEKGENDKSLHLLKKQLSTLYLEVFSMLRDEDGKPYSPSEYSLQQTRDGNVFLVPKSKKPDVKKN

RAW264.7 [8] = assay: Antiinflammatory activity against mouse RAW264.7 cells assessed as inhibition of LPS induced nitric oxide production at 20 uM […] followed by LPS challenge […] relative to control; format: functional
RAW264.7 [9] = assay: Antiinflammatory activity against mouse RAW264.7 cells assessed as inhibition of LPS-induced nitric oxide production after 24 hrs by Griess assay; format: functional, cell-based; conditions: RAW264.7, 24 h
A549 [10] = assay: Antitumor activity against human A549 cells xenografted in BALB/c nude mouse assessed as tumor growth inhibition at 5 mg/kg, ip administered as daily dose for 16 days; format: functional, organism-based
Mus musculus [11] = assay: Toxicity in BALB/c nude mouse xenografted with human A549 cells assessed as change in body weight at 5 mg/kg, ip administered as daily dose for 16 days relative to control; format: organism-based; conditions: in vivo, 384 h
Mus musculus [12] = assay: Toxicity in BALB/c nude mouse xenografted with human A549 cells at 5 mg/kg, ip administered as daily dose for 16 days relative to control; format: organism-based; conditions: in vivo, 384 h
[13] = target: T2, Tyrosine-protein phosphatase non-receptor type 1 (Homo sapiens); assay: (§1) Inhibition of recombinant human PTP1B using pNPP as substrate after 30 mins
[14] = target: T5, Tyrosine-protein phosphatase non-receptor type 1 (Homo sapiens, UniProt P18031); assay: as §1
T5 sequence (P18031 whole entry): T2 sequence (whole entry)

Tyrosinase [15] = target: T3, Tyrosinase; assay: Inhibition of tyrosinase (unknown origin) using L-tyrosine as substrate preincubated for 5 mins followed by substrate addition

Row | inhibition [1] | inhibition [3] | IC50 (Tyrosinase [4]) | IC50 [6] | Activity [7] | IC50 (RAW264.7 [9]) | inhibition [13] | IC50 [14] | IC50 (Tyrosinase [15]) | Structure (SMILES) | inhibition (Homo sapiens) | inhibition at 10 µM (MCF7) | inhibition at 10 µM (RAW264.7 [2]) | inhibition at 10 µM (SW480) | inhibition at 10 µM (HepG2) | inhibition at 10 µM (A549 [5]) | fold change (FC) (RAW264.7 [8]) | TGI (A549 [10]) | Activity (Mus musculus [11]) | Activity (Mus musculus [12])
1 | 84% | 56.9% | 2.8 µM |  |  |  |  |  |  | CC1(C)C=Cc2cc3cc(-c4ccc(O)cc4O)c(=O)oc3cc2O1 | 0% | 24.5% | 21.2% | 18.1% | 14.4% | 0% |  |  |  | 
2 | 68.3% | 9.9% | 5.1 µM |  |  |  |  |  |  | COc1ccc(C2COc3c(ccc(O)c3CC=C(C)C)C2=O)c(O)c1 (configuration not stated) | 0% | 8.7% | 18.1% | 27.8% | 50.3% | 9.4% |  |  |  | 
3 | 22.6% | 17.2% |  | 6.2 µM |  |  |  |  |  | CC(C)=CCc1cc(/C=C/C(=O)c2ccc(O)cc2O)ccc1O [LICOAGROCHALCONE A] | 69% | 35.4% | 31.6% | 18.3% | 33.9% | 6.4% |  |  |  | 
4 | 10.6% | 14.5% |  |  | Dose-dependent effect |  |  |  |  | C=CC(C)(C)c1cc(/C=C/C(=O)c2ccc(O)cc2)c(OC)cc1O [LICOAGROCHACONE A] | 57.2% | 55.9% | 14.2% | 13.6% | 57.9% | 17.8% | 0.8 |  |  | 
5 | 76.6% | 7.1% | 7.5 µM |  |  | 9.5 µM |  |  |  | CC1(C)C=Cc2c(O)ccc(C3=Cc4ccc(O)cc4OC3)c2O1 [GLABRENE] | 41.7% | 17.6% | 57.5% | 30.7% | 25.9% | 0% |  |  |  | 
6 | 4.4% | 56.5% |  | 5.5 µM |  |  |  |  |  | CC1(C)C=Cc2cc(/C=C/C(=O)c3ccc(O)cc3O)ccc2O1 | 60.7% | 45.7% | 0% | 7.9% | 11.1% | 2.6% |  |  |  | 
7 |  |  |  |  |  |  |  |  |  | COc1cc([C@@H]2c3cc4c(cc3[C@@H](O[C@@H]3O[C@@H]5CO[C@@H](C)O[C@H]5[C@H](O)[C@H]3O)[C@H]3COC(=O)[C@H]23)OCO4)cc(OC)c1O [ETOPOSIDE] |  |  |  |  |  |  |  | Active | Toxic | Non-Toxic
8 | 41.7% | 22.8% |  | 6.4 µM |  |  |  |  |  | CC1(C)C=Cc2c(ccc(-c3cc4ccc(O)cc4o3)c2O)O1 | 75.8% | 15.1% | 21.6% | 27.7% | 15.6% | 14.4% |  |  |  | 
9 | 0% | 84.5% |  |  |  |  | Dose-dependent effect | 5 to 7.9 µM |  | CC(C)=CCc1cc(/C=C/C(=O)c2ccc3c(c2O)C=CC(C)(C)O3)ccc1O | 3.4% | 15.6% | 7.2% | 4.9% | 10.6% | 2% |  |  |  | 
10 | 0% | 80.3% |  |  |  |  | Dose-dependent effect | 5 to 7.9 µM |  | CC(C)=CCc1c(O)ccc([C@@H]2COc3c(ccc4c3C=CC(C)(C)O4)C2)c1O [HISPAGLABRIDIN A] | 13.3% | 21.9% | 4% | 34.9% | 26.7% | 47.6% |  |  |  | 
11 | 99.7% | 3.6% |  |  |  |  |  |  | 0.09 µM | CC1(C)C=Cc2c(ccc3c2OC[C@@H](c2ccc(O)cc2O)C3)O1 [GLABRIDIN] | 0% | 8.8% | 19.8% | 19.8% | 12.1% | 12.7% |  |  |  | 
